Laboratory results from patent publication US11613546B2, “Substituted pyridotriazine compounds and uses thereof” (Gilead Sciences, Inc., priority 2021, dated 2023).
Where two headings read alike, the source gives them in different places.

Key:
Format in all cases: cell-based
MT-4 cells = test: Cytotoxicity assay in MT-4 cells
How it was run: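 Uninfected MT-4 cells were incubated with 1:3 serially diluted compound in RPMI/10% FBS for 5 days at 37° C. Viability was read by CellTiter-Glo luminescence, with 10 μM puromycin as the baseline cytotoxicity control. Values are the concentration giving a 50% decrease in luminescence, from sigmoidal dose-response fits.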

pLai RLuc reporter virus = test: HIV MT-4 serum shift antiviral reporter assay; conditions: 72 h, Renilla Glo
How it was run: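 MT-4 cells pre-infected with pLai RLuc virus for 2 h at 37 °C, then incubated 72 h at 37 °C with compound in medium (RPMI, 10% FBS) with or without 50% human serum; Renilla luminescence read. EC50 from sigmoidal fit; serum shift = EC50(HS/CCM)/EC50(CCM).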

HIV-1 (IIIB) = test: Antiviral assay in MT-4 cells; conditions: HIV-1 IIIB infected MT-4 cells, 5 days, Cell Titer Glo, read-out: MT4 EC50
How it was run: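 MT-4 cells infected with a 1:250 dilution of HIV-1 IIIB stock were incubated with serially diluted (1:3) compound for 5 days at 37 °C. Viability read by Cell Titer Glo luminescence; EC50 is the concentration giving 50% decrease in signal, from sigmoidal dose-response fits.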

[1] = uninfected MT-4 cells, 5 days, Cell Titer Glo, read-out: CC50
[2] = HS/CCM: 50% human serum, read-out: RLUC 50% HS
[3] = cell culture media (RPMI, 10% FBS), read-out: RLUC CCM
[4] = read-out: RLUC 50% HS, HS/CCM: 50% human serum
[5] = read-out: RLUC CCM, cell culture media (RPMI, 10% FBS)
[6] = Human immunodeficiency virus 1, IIIB, MT4, 120 h

Compound | CC50 (MT-4 cells; [1]) | EC50 (pLai RLuc reporter virus; [2]) | EC50 (pLai RLuc reporter virus; [3]) | EC50 (HIV-1 (IIIB)) | EC50 (pLai RLuc reporter virus; [4]) | EC50 (pLai RLuc reporter virus; [5]) | EC50 (HIV-1 (IIIB); [6]) | CC50 (MT-4 cells)
C[C@@H]1C[C@@H](F)[C@@H](F)CN2CN1n1cc(C(=O)NCc3ccc(F)cc3F)c(=O)c(O)c1C2=O (single isomer, unassigned) [Example C38] | 13600 nM | 17 nM | 1.1 nM | 1.5 nM |  |  |  | 
O=C(NCc1c(F)cc(F)cc1F)c1cn2c(c(O)c1=O)C(=O)N1Cc3cc(F)ccc3CN2C1 [Example C1, (6R)-10-fluoro-1-hydroxy-2,14-dioxo-N-(2,4,6-trifluorobenzyl)-2,7,12,14-tetrahydro-6,13-methanobenzo[g]pyrido[1,2-b][1,2,5]triazonine-3-carboxamide] | 10100 nM | 30.2 nM | 3.18 nM | 20 nM |  |  |  | 
O=C(NCc1c(F)cc(F)cc1F)c1cn2c(c(O)c1=O)C(=O)N1Cc3ccc(F)cc3CN2C1 [Example C2, (6R)-9-fluoro-1-hydroxy-2,14-dioxo-N-(2,4,6-trifluorobenzyl)-2,7,12,14-tetrahydro-6,13-methanobenzo[g]pyrido[1,2-b][1,2,5]triazonine-3-carboxamide] | 12800 nM | 47.9 nM | 2.86 nM | 18 nM |  |  |  | 
O=C(NCc1c(F)cc(F)cc1F)c1cn2c(c(O)c1=O)C(=O)N1Cc3cc(F)ccc3CN2C1 [Example C3, (6S)-10-fluoro-1-hydroxy-2,14-dioxo-N-(2,4,6-trifluorobenzyl)-2,7,12,14-tetrahydro-6,13-methanobenzo[g]pyrido[1,2-b][1,2,5]triazonine-3-carboxamide] | 13400 nM | 2.72 nM | 0.39 nM | 1.7 nM |  |  |  | 
O=C(NCc1c(F)cc(F)cc1F)c1cn2c(c(O)c1=O)C(=O)N1Cc3ccc(F)cc3CN2C1 [Example C4, (6S)-9-fluoro-1-hydroxy-2,14-dioxo-N-(2,4,6-trifluorobenzyl)-2,7,12,14-tetrahydro-6,13-methanobenzo[g]pyrido[1,2-b][1,2,5]triazonine-3-carboxamide] | 12000 nM | 6.08 nM | 0.54 nM | 1.2 nM |  |  |  | 
C[C@@H]1C/C=C\[C@H](C)N2CN1n1cc(C(=O)NCc3c(F)cc(F)cc3F)c(=O)c(O)c1C2=O [Example C7, (1S,2R,6S,Z)-9-hydroxy-2,6-dimethyl-8,10-dioxo-N-(2,4,6-trifluorobenzyl)-3,6,8,10-tetrahydro-2H-1,7-methanopyrido[1,2-b][1,2,5]triazecine-11-carboxamide] | 9190 nM | 172 nM | 0.35 nM | 2.1 nM |  |  |  | 
C[C@@H]1CCC[C@H](C)N2CN1n1cc(C(=O)NCc3c(F)cc(F)cc3F)c(=O)c(O)c1C2=O [Example C8, (1S,2R,6S)-9-hydroxy-2,6-dimethyl-8,10-dioxo-N-(2,4,6-trifluorobenzyl)-3,4,5,6,8,10-hexahydro-2H-1,7-methanopyrido[1,2-b][1,2,5]triazecine-11-carboxamide] | 4720 nM |  |  |  | 16.4 nM | 0.55 nM | 1.8 nM | 
C[C@@H]1C/C=C\CN2CN1n1cc(C(=O)NCc3ccc(F)cc3F)c(=O)c(O)c1C2=O [Example C10, (1R,2R,Z)—N-(2,4-difluorobenzyl)-9-hydroxy-2-methyl-8,10-dioxo-3,6,8,10-tetrahydro-2H-1,7-methanopyrido[1,2-b][1,2,5]triazecine-11-carboxamide] | 7570 nM | 339 nM | 0.4 nM | 1.8 nM |  |  |  | 
C[C@@H]1C/C=C\CN2CN1n1cc(C(=O)NCc3ccc(F)cc3F)c(=O)c(O)c1C2=O [Example C11, (1S,2R,Z)—N-(2,4-difluorobenzyl)-9-hydroxy-2-methyl-8,10-dioxo-3,6,8,10-tetrahydro-2H-1,7-methanopyrido[1,2-b][1,2,5]triazecine-11-carboxamide] | 9930 nM | 7.32 nM | 0.27 nM | 1.1 nM |  |  |  | 
C[C@@H]1CCC[C@H](C)N2CN1n1cc(C(=O)NCc3c(F)cc(F)cc3F)c(=O)c(O)c1C2=O [Example C14, (1R,2S,6R)-9-hydroxy-2,6-dimethyl-8,10-dioxo-N-(2,4,6-trifluorobenzyl)-3,4,5,6,8,10-hexahydro-2H-1,7-methanopyrido[1,2-b][1,2,5]triazecine-11-carboxamide] | 8060 nM |  |  | 2 nM | 31.1 nM | 0.71 nM |  | 
C[C@@H]1CCCCN2CN1n1cc(C(=O)NCc3ccc(F)cc3F)c(=O)c(O)c1C2=O [Example C15, (1R,2R)—N-(2,4-difluorobenzyl)-9-hydroxy-2-methyl-8,10-dioxo-3,4,5,6,8,10-hexahydro-2H-1,7-methanopyrido[1,2-b][1,2,5]triazecine-11-carboxamide] | 9970 nM |  |  | 1.9 nM |  |  |  | 
C[C@@H]1/C=C\C[C@@H](C)N2CN1C(=O)c1c(O)c(=O)c(C(=O)NCc3c(F)cc(F)cc3F)cn12 [Example C18, (1S,2R,6R,Z)-9-hydroxy-2,6-dimethyl-8,10-dioxo-N-(2,4,6-trifluorobenzyl)-3,6,8,10-tetrahydro-2H-1,7-methanopyrido[1,2-b][1,2,5]triazecine-11-carboxamide] |  |  |  | 4.3 nM |  |  |  | 13400 nM
C[C@H]1/C=C\C[C@H](C)N2CN1C(=O)c1c(O)c(=O)c(C(=O)NCc3c(F)cc(F)cc3F)cn12 [Example C19, (1R,2S,6S,Z)-9-hydroxy-2,6-dimethyl-8,10-dioxo-N-(2,4,6-trifluorobenzyl)-3,6,8,10-tetrahydro-2H-1,7-methanopyrido[1,2-b][1,2,5]triazecine-11-carboxamide] | 10200 nM | 60.3 nM | 0.41 nM | 1.1 nM |  |  |  | 
C[C@H]1/C=C\C[C@H](C)N2CN1C(=O)c1c(O)c(=O)c(C(=O)NCc3c(F)cc(F)cc3F)cn12 [Example C20, (1S,2S,6S,Z)-9-hydroxy-2,6-dimethyl-8,10-dioxo-N-(2,4,6-trifluorobenzyl)-3,6,8,10-tetrahydro-2H-1,7-methanopyrido[1,2-b][1,2,5]triazecine-11-carboxamide] | 16600 nM |  |  | 3.5 nM |  |  |  | 
C[C@@H]1CCC[C@H](C)N2CN1n1cc(C(=O)NCc3c(F)cc(F)cc3F)c(=O)c(O)c1C2=O [Example C21, (1R,2S,6S)-9-hydroxy-2,6-dimethyl-8,10-dioxo-N-(2,4,6-trifluorobenzyl)-3,4,5,6,8,10-hexahydro-2H-1,7-methanopyrido[1,2-b][1,2,5]triazecine-11-carboxamide] | 11700 nM |  |  | 1.7 nM | 98.1 nM | 0.23 nM |  | 
C[C@@H]1C(F)=C[C@H](C)N2CN1n1cc(C(=O)NCc3c(F)cc(F)cc3F)c(=O)c(O)c1C2=O [Example C36, (1S,2R,5S)-3-fluoro-8-hydroxy-2,5-dimethyl-7,9-dioxo-N-(2,4,6-trifluorobenzyl)-2,5,7,9-tetrahydro-1,6-methanopyrido[1,2-b][1,2,5]triazonine-10-carboxamide] | 16600 nM |  |  | 1.6 nM |  |  |  | 
C[C@H]1C=CC(C)(C)N2CN1C(=O)c1c(O)c(=O)c(C(=O)NCc3c(F)cc(F)cc3F)cn12 [Example C48, (1S,5S)-8-hydroxy-2,2,5-trimethyl-7,9-dioxo-N-(2,4,6-trifluorobenzyl)-2,5,7,9-tetrahydro-1,6-methanopyrido[1,2-b][1,2,5]triazonine-10-carboxamide] | 50000 nM |  |  | 1.5 nM |  |  |  | 
C[C@@H]1N2CN([C@@H](C)CC1(F)F)n1cc(C(=O)NCc3ccc(F)cc3F)c(=O)c(O)c1C2=O [Example C59, (1S,2S,5S)—N-(2,4-difluorobenzyl)-4,4-difluoro-8-hydroxy-2,5-dimethyl-7,9-dioxo-2,3,4,5,7,9-hexahydro-1,6-methanopyrido[1,2-b][1,2,5]triazonine-10-carboxamide] | 50000 nM |  |  |  |  |  | 2.8 nM | 
C[C@H]1C=C[C@@]2(CCOC2)N2CN1C(=O)c1c(O)c(=O)c(C(=O)NCc3c(F)cc(F)cc3F)cn12 [Example C85, (1′S,3R,5′S)-8′-hydroxy-5′-methyl-7′,9′-dioxo-N-(2,4,6-trifluorobenzyl)-4,5,7′,9′-tetrahydro-2H,5′H-spiro[furan-3,2′-[1,6]methanopyrido[1,2-b][1,2,5]triazonine]-10′-carboxamide] | 29000 nM |  |  |  |  |  |  | 
C[C@@H]1[C@H]2C[C@H]2[C@H](C)N2CN1n1cc(C(=O)NCc3c(F)cc(F)cc3F)c(=O)c(O)c1C2=O [Example C88, (1aS,2R,3S,11S,11aR)-8-hydroxy-2,11-dimethyl-7,9-dioxo-N-(2,4,6-trifluorobenzyl)-1a,2,7,9,11,11a-hexahydro-1H-3,10-methanocyclopropa[g]pyrido[1,2-b][1,2,5]triazonine-6-carboxamide] | 34300 nM |  |  | 1.1 nM |  |  |  | 
(1S,2R,5S)—N-(2,4-difluorobenzyl)-8-hydroxy-2,3,5-trimethyl-7,9-dioxo-2,5,7,9-tetrahydro-1,6-methanopyrido[1,2-b][1,2,5]triazonine-10-carboxamide [Example C62] |  |  |  | 1.4 nM |  |  |  | 50000 nM
